Numbered stars: 1 amine (or outer) side, 2 acyl side, 3 side chain; on linkers, the order of the positions; unused ones are H or OH. Bridge positions count the residues as written; N and C are the ends. Square brackets hold non-standard residues; d marks the D form. Peptide text beside a SMILES is read from it. ξ: configuration not given here. ξαMeNle(6-ylidene) = CC(CCCC=[*:3])(N[*:1])C(=O)[*:2]; X1 = CC(CCCCCCC=[*:3])(N[*:1])C(=O)[*:2]; R8 = C=CCCCCCC[C@@](C)(N)C(=O)O; S5 = C=CCCC[C@](C)(N)C(=O)O
Assays:
NCI-H524 = type: cell-based; settings: 72 h
Experimental: NCI-H524, lung (small cell lung cancer, SCLC), ATCC-CRL-5831;
(§1) Cell line MCF-7 was cultured in incubator under CO2 (6%) at 37° C. in DMEM high glucose (Dulbecco's Modified Eagle Solution, Gibco-BRL 31966-21) medium with 10% fetal bovine serum inactivated (FBS) (Gibco-BRL 10106-169). Cell lines HL-60, NCI-H524, NCI-H526, NCI-H69, NCI-H82, NCI-H187 and H5B were cultured in an incubator at 37° C. in RPMI-1640 (Sigma R8758) medium with 10% of fetal bovine serum inactivated (FBS) and 2 mM glutamine (Sigma G7513). Cell line NCI-H510A was cultured in incubator in F12K medium with 10% of fetal bovine serum inactivated (FBS). Cell line GBM-18 and GBM-27 were cultured in incubator under CO2 (6%) at 37° C. in complete medium (Neurobasal+B27+Glutamax+Growth factors).
During the amplification step and the assays, adherent cells were rinsed with DPBS (Dulbecco's Phosphate Buffered Saline, Sigma D1283) three times and afterward treated for 5 minutes with trypsin ([…]) (Gibco-BRL, 15400054) in solution of DPBS at 37° C., and, once detached, transferred in the culturing medium. No-adherent cells were centrifuged and transferred in the culturing medium. Cells were counted in a Neubauer chamber after labelling with Tripan-Blue. […]
(§2) Cells were incubated during 72 h in incubator under CO2 atmosphere at 37° C. Cell viability was measured by means of MTT (3-(4,5-dimethylthiazol-2-yl)-2,5-diphenyltetrazolium bromide) assay, Alamar Blue® (Biosource DAL1100) and Hexosaminidase activity test, consecutively, following manufacturer instructions.
MTT: 1. […] Absorbance at 570 nm was finally measured.
Alamar Blue: 10 μl Alamar Blue solution was added to each well and the plates were incubated for […] in the incubator. Fluorescence ratio at 535/590 (excitation/emission) was measured in Cytofluor (Millipore) fluorimeter. Blank control was determined by lysis of untreated cells with con 2% of Triton X100, right before adding Alamar Blue solution. […]

NCI-H526 = settings: 72 h
Experimental: NCI-H526, epithelial (small cell lung cancer, SCLC), ATCC-CRL-5811;
During the amplification step and the assays, adherent cells were rinsed with DPBS (Dulbecco's Phosphate Buffered Saline, Sigma D1283) three times and afterward treated for 5 minutes with trypsin ([0.5 g/ml]/EDTA [0.2 g/ml]) (Gibco-BRL, 15400054) in solution of DPBS at 37° C., and, once detached, transferred in the culturing medium. No-adherent cells were centrifuged and transferred in the culturing medium. Cells were counted in a Neubauer chamber after labelling with Tripan-Blue. […]
MTT: 1. […] Absorbance at 570 nm was finally measured. […]

NCI-H82 = type: cell-based; settings: 72 h
Experimental: NCI-H82, epithelial (small cell lung cancer, SCLC), ATCC-CRL-5811;
as §1
(§3) During the amplification step and the assays, adherent cells were rinsed with DPBS (Dulbecco's Phosphate Buffered Saline, Sigma D1283) three times and afterward treated for 5 minutes with trypsin ([…]) (Gibco-BRL, 15400054) in solution of DPBS at 37° C., and, once detached, transferred in the culturing medium. No-adherent cells were centrifuged and transferred in the culturing medium. Cells were counted in a Neubauer chamber after labelling with Tripan-Blue.
(§4) MCF-7, NCI-H187, NCI-H69, NCI-H526 and H5B cells were seeded at a density of 5000 cells/well; NCI-H524 and NCI-H82 were seeded at a density of 2500 cells/well; HL-60 and NCI-H510A at 10000 cells/well in 100 μl of medium in 96 well plates. After 24 h, the compounds to be tested were added to calculate the dose/response curve at the starting concentration of 100 μM with serial dilutions (1:1). Controls were the untreated cells. Each experiment was performed in triplicate.
as §2
(§5) MTT: 1. Stock solution of MTT (475989 Calbiochem) was 5 mg/ml in PBS 1×. As negative control (experiment noise) 3 wells were treated with 20 μl/well of a solution of SDS 10% in H2O. The same control was used for Alamar Blue/Hexosaminidase. 10 μl/well of MTT solution were added and the plate was incubated for 3-4 hr. The medium was discarded and 100 μl of extracting buffer (PBS 1×, 15% SDS, 50% […] N,N-Dimethylformamide, pH 4,7) were added to each well. Plates were incubated for 16 h at room temperature under orbital shaking. Absorbance at 570 nm was finally measured.
(§6) Alamar Blue: 10 μl Alamar Blue solution was added to each well and the plates were incubated for […] in the incubator. Fluorescence ratio at 535/590 (excitation/emission) was measured in Cytofluor (Millipore) fluorimeter. Blank control was determined by lysis of untreated cells with con 2% of Triton X100, right before adding Alamar Blue solution.
(§7) Hexosaminidase activity test: after Alamar Blue lecture, medium was discarded and plates were rinsed once with PBS. 60 μl hexosaminidase substrate (p-nitrophenol-N-acetyl-beta-D-glucosamide 7.5 mM [Sigma N-9376], sodium citrate 0.1 M, pH 5.0, 0.25% Triton X-100) was added to each well and the plates were incubated at 37° C. for 2-5 h, according to the cell type (hexosaminidase activity changes according to the cell type). […] Blank control was the same as described before.
(§8) Data analysis was performed calculating the percentage of cell viability normalized vs. the values of negative control, which was considered equal to 100%. The dose/response curve was fitted through the sigmoidal equation dose-response (variable slope) and the EC50 values were calculated as follow: Y=Bottom+(Top−Bottom)/(1+10^{[(Log EC50−X)*HillSlope]},

NCI-H187 = type: cell-based; settings: 72 h
Experimental: NCI-H187, epithelial (small cell lung cancer, SCLC), ATCC-CRL-5804;
as §1, §3, §4, §2, §5, §6, §7, §8

NCI-H510A = type: cell-based; settings: 72 h
Experimental: (§9) NCI-510A, epithelial (small cell lung cancer, SCLC), ATCC-HBT-124; and Hepatocytes (normal liver), from a donor was provided by Foundation DTI-Donation & Transplantation Institute from surgical wastes and from organs not suitable for transplantation
as §1, §3, §4, §2, §5, §6, §7, §8

cancer cell lines = assay: Inhibition of cancer cell proliferation, general statements; type: cell-based
Experimental: as §4, §2, §8

Human hepatocytes = assay: Hepatotoxicity assay, trypan blue exclusion, 24 h; type: cell-based; settings: human hepatocytes, 0.5% SDS
Source text: as §9
Human liver from a donor was subjected to hepatocyte isolation by using a two-step tissue microperfusion technique taking maximum care to avoid anoxia before cannulation, since hepatocytes are cells highly sensitive to oxygen levels. An initial anoxic state could result in a low viability of the cells, and will later affect their metabolic capacity in the culture. Briefly, liver tissue was cannulated by using the accessible vessels with a 1 mm-diameter needle. A balanced salt solution was injected to clean the organ by using a peristaltic pump adjusted to a flow rate of 18-20 ml/min. After washing, a solution containing collagenase was added for liver disintegration. The cell suspension obtained using this process was filtered and centrifuged and, after a couple of washings to remove collagenase, cells were re-suspended in culture medium Ham's F-12/William (1:1) medium supplemented with 2 mM glutamine, […] sodium selenite, 2% newborn calf serum, 50 mU/ml penicillin, 50 μg/ml streptomycin, 0.1% bovine serum albumin, 1.68 mM NAME, 26 mM sodium bicarbonate, 25 μg/ml transferrin, 65.5 μM ethanolamine, 7.2 μM linoleic acid, 17.5 mM glucose, 6.14 mM ascorbic acid and 10 nM insulin.
After resuspension, a cell aliquot was removed and viability was determined by cell counting using the trypan blue exclusion method. Trypan blue uptake is the result of cell membrane alteration and in consequence of cell death. Thus, to quantify cell viability, 0.4% trypan blue in saline was added to the cells and these were immediately loaded in a Neubauer chamber. Viable cells were counted in 5 different fields under the optical microscope as non-blue cells. % Viability=Number of non-blue cells×100/Number of total cells Viability and Hepatoxicity Assay
Human hepatocytes isolated and re-suspended as described before were seeded at 100,000 viable cells/well on 96 collagen-coated plates in order to assess compound's cytotoxicity. After 1 hour in culture, medium was renewed to eliminate cell debris. Cultured human hepatocytes were allowed to stay in culture for 24 hours prior performing the experiments. After 24 h, the compounds to be tested were added to calculate the dose/response curve at the starting concentration of 400 μM with serial dilutions. Each experiment was performed in triplicate. Cells were incubated during 24 h in incubator under CO2 atmosphere at 37° C.
The viability was determined by cell counting using the trypan blue exclusion method. % Viability=Number of non-blue cells×100/Number of total cells Statistics

SMILES	EC50 (NCI-H524) [µM]	EC50 (NCI-H526) [µM]	EC50 (NCI-H82) [µM]	EC50 (NCI-H187) [µM]	EC50 (NCI-H510A) [µM]	inhibition of cancer cell proliferation (in words) (cancer cell lines)	% Viability (Human hepatocytes) [%]
CC(C)C[C@H](NC(=O)[C@H](CCCCN)NC(=O)[C@@H](NC(=O)[C@H](CCCNC(=N)N)NC(=O)[C@H](CC(N)=O)NC(=O)[C@@H](N)CCCNC(=N)N)C(C)C)C(=O)N[C@H](C(=O)N[C@@H](CC(N)=O)C(=O)N[C@@H](CC(C)C)C(=O)N[C@]1(C)CCCCCCC=CCCC[C@@](C)(C(N)=O)NC(=O)[C@H](CCC(=O)O)NC(=O)[C@H](CCCNC(=N)N)NC(=O)[C@H](CC(C)C)NC(=O)[C@H]([C@@H](C)O)NC(=O)[C@H](C)NC(=O)[C@H](Cc2ccccc2)NC1=O)C(C)C [H04] (H-RNRVKLVNL[R8]FATLRE[S5]-NH2; staple 10-17; N-terminus and C-terminus assumed)	~9	~11	–	–	–	–	–
CC(C)C[C@H](NC(=O)[C@H](CCCCN)NC(=O)[C@@H](NC(=O)[C@@H](N)CCCNC(=N)N)C(C)C)C(=O)N[C@H](C(=O)N[C@@H](CC(N)=O)C(=O)N[C@@H](CC(C)C)C(=O)NC1(C)CCCCCCC=CCCCC(C)(C(=O)N[C@H](C(=O)N2CCC[C@H]2C(N)=O)C(C)C)NC(=O)[C@H](Cc2ccccc2)NC(=O)[C@H](CCCNC(=N)N)NC(=O)[C@H](CC(C)C)NC(=O)[C@H]([C@@H](C)O)NC(=O)[C@H](C)NC(=O)[C@H](Cc2ccccc2)NC1=O)C(C)C (stereo partly drawn) [IDP-H14-F12] (H-RVKLVNL[X1]FATLRF[ξαMeNle(6-ylidene)]VP-NH2; staple 8-15; N-terminus and C-terminus assumed)	–	–	~7.5	~7.5	~7.5	active	–
CCCCCCCCCCCCOS(=O)(=O)[O-].[Na+] [SDS, reference compound]	–	–	–	–	–	–	13.6

Further lines, with some results ahead:

EC50 (NCI-H524) [µM]	EC50 (NCI-H526) [µM]	EC50 (NCI-H82) [µM]	EC50 (NCI-H187) [µM]	EC50 (NCI-H510A) [µM]	SMILES	inhibition of cancer cell proliferation (in words) (cancer cell lines)	% Viability (Human hepatocytes) [%]
~15	~10	–	–	–	CC(C)C[C@@H]1NC(=O)[C@H](CC(N)=O)NC(=O)[C@H](C(C)C)NC(=O)C(C)(NC(=O)[C@H](CCCCN)NC(=O)[C@@H](NC(=O)[C@H](CCCNC(=N)N)NC(=O)[C@H](CC(N)=O)NC(=O)[C@@H](N)CCCNC(=N)N)C(C)C)CCCC=CCCCC(C)(C(=O)N[C@@H](Cc2ccccc2)C(=O)N[C@@H](C)C(=O)N[C@H](C(=O)N[C@@H](CC(C)C)C(=O)N[C@@H](CCCNC(=N)N)C(=O)N[C@@H](CCC(=O)O)C(=O)N[C@@H](Cc2c[nH]cn2)C(N)=O)[C@@H](C)O)NC1=O (stereo partly drawn) [H02] (H-RNRVK[ξαMeNle(6-ylidene)]VNL[ξαMeNle(6-ylidene)]FATLREH-NH2; staple 6-10; N-terminus and C-terminus assumed)	–	–
–	–	~7.5	~7.5	~7.5	CC(C)C[C@H](NC(=O)[C@H](CCCCN)NC(=O)[C@@H](NC(=O)[C@@H](N)CCCNC(=N)N)C(C)C)C(=O)N[C@H](C(=O)N[C@@H](CC(N)=O)C(=O)N[C@@H](CC(C)C)C(=O)NC1(C)CCCCCCC=CCCCC(C)(C(=O)N[C@H](C(=O)N[C@@H](CO)C(N)=O)C(C)C)NC(=O)[C@H](CCC(=O)O)NC(=O)[C@H](CCCNC(=N)N)NC(=O)[C@H](CC(C)C)NC(=O)[C@H]([C@@H](C)O)NC(=O)[C@H](C)NC(=O)[C@H](Cc2ccccc2)NC1=O)C(C)C (stereo partly drawn) [IDP-H14-S15] (H-RVKLVNL[X1]FATLRE[ξαMeNle(6-ylidene)]VS-NH2; staple 8-15; N-terminus and C-terminus assumed)	active	–
–	–	~7.5	~7.5	~7.5	CC(C)C[C@H](NC(=O)[C@H](CCCCN)NC(=O)[C@@H](NC(=O)[C@@H](N)CCCNC(=N)N)C(C)C)C(=O)N[C@H](C(=O)N[C@@H](CC(N)=O)C(=O)N[C@@H](CC(C)C)C(=O)NC1(C)CCCCCCC=CCCCC(C)(C(=O)N[C@H](C(=O)N[C@@H](Cc2ccccc2)C(N)=O)C(C)C)NC(=O)[C@H](CCC(=O)O)NC(=O)[C@H](CCCNC(=N)N)NC(=O)[C@H](CC(C)C)NC(=O)[C@H]([C@@H](C)O)NC(=O)[C@H](C)NC(=O)[C@H](Cc2ccccc2)NC1=O)C(C)C (stereo partly drawn) [IDP-H14-F14] (H-RVKLVNL[X1]FATLRE[ξαMeNle(6-ylidene)]VF-NH2; staple 8-15; N-terminus and C-terminus assumed)	active	–
–	–	~7.5	~7.5	~12.5	CC(C)C[C@H](NC(=O)[C@H](CCCCN)NC(=O)[C@@H](NC(=O)[C@@H](N)CCCNC(=N)N)C(C)C)C(=O)N[C@H](C(=O)N[C@@H](CCC(N)=O)C(=O)N[C@@H](CC(C)C)C(=O)NC1(C)CCCCCCC=CCCCC(C)(C(=O)N[C@H](C(=O)N2CCC[C@H]2C(N)=O)C(C)C)NC(=O)[C@H](CCC(=O)O)NC(=O)[C@H](CCCNC(=N)N)NC(=O)[C@H](CC(C)C)NC(=O)[C@H]([C@@H](C)O)NC(=O)[C@H](C)NC(=O)[C@H](Cc2ccccc2)NC1=O)C(C)C (stereo partly drawn) [IDP-H14-Q6] (H-RVKLVQL[X1]FATLRE[ξαMeNle(6-ylidene)]VP-NH2; staple 8-15; N-terminus and C-terminus assumed)	active	–
